# Experiments:
# Experiment in all cases: KINOMEscan kinase binding assay (Eurofins/DiscoveRx), % Ctrl
# kinases [1] = biological target: T1, kinases (Homo sapiens, UniProt P36888, R834Q)
# T1 construct: purchased Eurofins/DiscoveRx; host or cells: E. coli BL21-derived host (T7 phage display) for most kinases; HEK-293 for the rest
# T1 sequence (P36888 27-993 R834Q): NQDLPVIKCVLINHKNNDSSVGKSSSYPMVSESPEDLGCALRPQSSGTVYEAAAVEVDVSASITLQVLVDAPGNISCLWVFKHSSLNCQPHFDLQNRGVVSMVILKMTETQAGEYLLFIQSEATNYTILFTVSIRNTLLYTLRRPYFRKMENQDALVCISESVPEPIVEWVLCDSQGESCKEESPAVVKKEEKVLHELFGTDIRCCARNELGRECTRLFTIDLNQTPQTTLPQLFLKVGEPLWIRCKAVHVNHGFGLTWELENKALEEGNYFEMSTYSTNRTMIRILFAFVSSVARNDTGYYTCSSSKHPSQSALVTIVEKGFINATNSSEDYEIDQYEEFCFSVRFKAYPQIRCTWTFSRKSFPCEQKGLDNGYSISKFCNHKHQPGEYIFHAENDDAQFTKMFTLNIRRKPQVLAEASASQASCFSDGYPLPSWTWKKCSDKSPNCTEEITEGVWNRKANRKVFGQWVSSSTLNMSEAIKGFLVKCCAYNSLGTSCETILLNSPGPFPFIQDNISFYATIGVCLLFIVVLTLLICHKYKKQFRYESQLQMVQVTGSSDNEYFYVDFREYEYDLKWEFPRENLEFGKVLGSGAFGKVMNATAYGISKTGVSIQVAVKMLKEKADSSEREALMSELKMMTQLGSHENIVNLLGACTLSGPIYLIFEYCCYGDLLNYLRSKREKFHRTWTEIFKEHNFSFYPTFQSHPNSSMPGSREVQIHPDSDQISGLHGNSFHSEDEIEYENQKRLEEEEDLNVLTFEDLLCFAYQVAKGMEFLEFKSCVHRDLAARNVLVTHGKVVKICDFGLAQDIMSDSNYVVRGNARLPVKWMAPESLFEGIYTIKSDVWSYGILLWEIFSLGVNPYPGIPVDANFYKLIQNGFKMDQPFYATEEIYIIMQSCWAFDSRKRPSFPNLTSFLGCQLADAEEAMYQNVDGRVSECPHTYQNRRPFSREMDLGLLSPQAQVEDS
# Outline: (§1)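 Read-out is qPCR of kinase eluted from ligand-coated streptavidin beads after 1 h room-temperature competition with test compound. Values are % Ctrl at the tested concentration, lower meaning tighter binding.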
# kinases [2] = biological target: T2, kinases (Homo sapiens, UniProt P00519, F317L)
# T2 construct: purchased Eurofins/DiscoveRx; host or cells: E. coli BL21-derived host (T7 phage display) for most kinases; HEK-293 for the rest
# Outline: as §1
# kinases [3] = biological target: T3, kinases (Homo sapiens, UniProt P10721, L576P)
# T3 construct: purchased Eurofins/DiscoveRx; host or cells: E. coli BL21-derived host (T7 phage display) for most kinases; HEK-293 for the rest
# T3 sequence (P10721 26-976 L576P): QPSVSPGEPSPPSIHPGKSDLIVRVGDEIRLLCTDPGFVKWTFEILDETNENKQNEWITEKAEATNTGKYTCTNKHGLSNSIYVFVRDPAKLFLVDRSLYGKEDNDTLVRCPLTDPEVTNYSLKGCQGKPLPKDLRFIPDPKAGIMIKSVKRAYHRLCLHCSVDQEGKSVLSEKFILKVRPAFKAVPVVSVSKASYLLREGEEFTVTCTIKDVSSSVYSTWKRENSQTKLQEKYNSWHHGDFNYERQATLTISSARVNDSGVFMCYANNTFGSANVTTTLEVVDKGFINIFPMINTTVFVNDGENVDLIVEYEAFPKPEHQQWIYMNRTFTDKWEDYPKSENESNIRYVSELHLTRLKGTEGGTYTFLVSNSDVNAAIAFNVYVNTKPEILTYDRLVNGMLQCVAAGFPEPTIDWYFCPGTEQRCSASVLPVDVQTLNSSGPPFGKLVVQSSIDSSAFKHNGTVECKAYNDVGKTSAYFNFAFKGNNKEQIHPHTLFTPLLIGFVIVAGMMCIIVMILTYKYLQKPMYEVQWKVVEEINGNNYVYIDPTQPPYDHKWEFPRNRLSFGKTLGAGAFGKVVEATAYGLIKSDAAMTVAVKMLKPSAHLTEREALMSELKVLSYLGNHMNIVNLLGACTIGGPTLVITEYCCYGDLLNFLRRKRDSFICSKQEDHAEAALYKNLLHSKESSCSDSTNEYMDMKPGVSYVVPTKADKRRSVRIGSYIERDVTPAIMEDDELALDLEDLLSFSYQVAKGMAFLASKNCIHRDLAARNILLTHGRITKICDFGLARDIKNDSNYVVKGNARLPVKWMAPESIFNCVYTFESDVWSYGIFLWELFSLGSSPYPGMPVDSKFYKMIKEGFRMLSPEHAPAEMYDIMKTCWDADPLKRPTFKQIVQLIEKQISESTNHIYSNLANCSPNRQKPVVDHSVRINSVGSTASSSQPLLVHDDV
# Outline: as §1
# kinases [4] = biological target: T4, kinases (Homo sapiens, UniProt P00519)
# T4 construct: purchased Eurofins/DiscoveRx; host or cells: E. coli BL21-derived host (T7 phage display) for most kinases; HEK-293 for the rest
# Outline: as §1
# kinases [5] = biological target: T5, kinases (Homo sapiens, UniProt P16234)
# T5 construct: purchased Eurofins/DiscoveRx; host or cells: E. coli BL21-derived host (T7 phage display) for most kinases; HEK-293 for the rest
# T5 sequence (P16234 24-1089): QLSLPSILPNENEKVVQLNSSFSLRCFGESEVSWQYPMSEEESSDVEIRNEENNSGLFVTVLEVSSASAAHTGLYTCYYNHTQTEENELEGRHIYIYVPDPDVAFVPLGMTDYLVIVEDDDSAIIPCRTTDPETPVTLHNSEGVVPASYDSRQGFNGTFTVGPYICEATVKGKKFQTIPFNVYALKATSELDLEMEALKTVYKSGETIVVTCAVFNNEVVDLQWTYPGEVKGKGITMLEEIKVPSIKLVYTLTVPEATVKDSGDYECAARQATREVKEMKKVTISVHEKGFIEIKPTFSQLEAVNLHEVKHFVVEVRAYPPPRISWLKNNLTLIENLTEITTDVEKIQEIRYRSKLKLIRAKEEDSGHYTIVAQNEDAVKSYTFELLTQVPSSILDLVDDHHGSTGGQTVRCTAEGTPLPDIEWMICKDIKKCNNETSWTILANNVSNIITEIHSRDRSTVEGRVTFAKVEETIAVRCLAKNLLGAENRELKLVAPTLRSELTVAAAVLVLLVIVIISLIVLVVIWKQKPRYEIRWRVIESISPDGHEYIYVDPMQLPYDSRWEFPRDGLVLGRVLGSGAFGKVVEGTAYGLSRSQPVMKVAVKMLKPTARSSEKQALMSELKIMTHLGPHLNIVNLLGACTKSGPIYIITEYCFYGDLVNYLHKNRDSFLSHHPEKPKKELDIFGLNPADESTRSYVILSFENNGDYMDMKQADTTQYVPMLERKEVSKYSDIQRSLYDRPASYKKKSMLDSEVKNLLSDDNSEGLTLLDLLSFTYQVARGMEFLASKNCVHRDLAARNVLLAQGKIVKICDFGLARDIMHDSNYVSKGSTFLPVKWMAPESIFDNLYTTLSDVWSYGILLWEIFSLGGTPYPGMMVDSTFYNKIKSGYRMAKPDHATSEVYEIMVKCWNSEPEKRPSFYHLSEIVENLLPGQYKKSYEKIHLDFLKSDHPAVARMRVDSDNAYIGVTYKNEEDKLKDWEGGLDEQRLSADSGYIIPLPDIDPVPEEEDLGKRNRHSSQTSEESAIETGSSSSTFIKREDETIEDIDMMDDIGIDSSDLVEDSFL
# Outline: as §1
# kinases [6] = biological target: T6, kinases (Homo sapiens, UniProt P00533, G719C)
# T6 construct: purchased Eurofins/DiscoveRx; host or cells: E. coli BL21-derived host (T7 phage display) for most kinases; HEK-293 for the rest
# Outline: as §1
# kinases [7] = biological target: T7, kinases (Homo sapiens, UniProt P07949, M918T)
# T7 construct: purchased Eurofins/DiscoveRx; host or cells: E. coli BL21-derived host (T7 phage display) for most kinases; HEK-293 for the rest
# T7 sequence (P07949 29-1114 M918T): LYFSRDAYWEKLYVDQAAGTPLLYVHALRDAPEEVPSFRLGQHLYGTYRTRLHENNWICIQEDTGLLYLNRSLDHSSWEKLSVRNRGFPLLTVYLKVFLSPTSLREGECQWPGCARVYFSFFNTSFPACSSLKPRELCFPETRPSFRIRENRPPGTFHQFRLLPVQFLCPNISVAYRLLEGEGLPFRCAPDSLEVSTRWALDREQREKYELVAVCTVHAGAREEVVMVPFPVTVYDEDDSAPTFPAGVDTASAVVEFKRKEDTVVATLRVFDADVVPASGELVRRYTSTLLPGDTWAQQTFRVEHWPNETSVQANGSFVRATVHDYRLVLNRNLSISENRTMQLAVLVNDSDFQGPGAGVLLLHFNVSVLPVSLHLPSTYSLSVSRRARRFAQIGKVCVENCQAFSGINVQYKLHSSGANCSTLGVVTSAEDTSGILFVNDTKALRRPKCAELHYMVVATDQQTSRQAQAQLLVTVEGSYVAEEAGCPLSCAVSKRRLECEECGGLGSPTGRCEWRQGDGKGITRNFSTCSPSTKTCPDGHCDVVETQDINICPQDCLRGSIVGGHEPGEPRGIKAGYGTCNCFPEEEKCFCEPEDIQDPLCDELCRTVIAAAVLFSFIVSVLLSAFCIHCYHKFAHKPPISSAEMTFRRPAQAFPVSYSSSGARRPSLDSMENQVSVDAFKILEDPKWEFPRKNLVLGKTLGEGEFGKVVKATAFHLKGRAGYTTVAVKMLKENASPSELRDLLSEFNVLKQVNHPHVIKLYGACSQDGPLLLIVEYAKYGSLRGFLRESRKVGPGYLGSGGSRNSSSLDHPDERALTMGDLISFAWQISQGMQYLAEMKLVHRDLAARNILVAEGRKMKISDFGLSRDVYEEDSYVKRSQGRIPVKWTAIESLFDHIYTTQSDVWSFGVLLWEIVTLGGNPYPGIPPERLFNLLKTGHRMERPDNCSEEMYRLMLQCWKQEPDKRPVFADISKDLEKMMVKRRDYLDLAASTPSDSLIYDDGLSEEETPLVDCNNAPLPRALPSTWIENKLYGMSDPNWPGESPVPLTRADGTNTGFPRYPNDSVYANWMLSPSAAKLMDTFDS
# Outline: as §1
# kinases [8] = biological target: T8, kinases (Homo sapiens, UniProt P00519, H396P)
# T8 construct: purchased Eurofins/DiscoveRx; host or cells: E. coli BL21-derived host (T7 phage display) for most kinases; HEK-293 for the rest
# Outline: as §1
# [9] = target ABL1(F317L)-nonphosphorylated; 1 μM
# [10] = target ABL1(F317L)-phosphorylated; 1 μM
# [11] = target ABL1-nonphosphorylated; 1 μM
# [12] = target ABL1-phosphorylated; 1 μM
# [13] = target ABL1(H396P)-nonphosphorylated; 1 μM
# [14] = target ABL1(H396P)-phosphorylated; 1 μM
# [15] = 1 μM; ABL1(F317L)-nonphosphorylated
# [16] = 1 μM; ABL1(F317L)-phosphorylated
# [17] = 1 μM; ABL1(H396P)-nonphosphorylated
# [18] = 1 μM; ABL1(H396P)-phosphorylated
"% Ctrl, FLT3(R834Q) (kinases [1]; 1 μM; FLT3(R834Q)) [% Ctrl]","% Ctrl, ABL1(F317L)-nonphosphorylated (kinases [2]; [15]) [% Ctrl]","% Ctrl, ABL1(F317L)-phosphorylated (kinases [2]; [16]) [% Ctrl]","% Ctrl, KIT(L576P) (kinases [3]; 1 μM; KIT(L576P)) [% Ctrl]","% Ctrl, ABL1-nonphosphorylated (kinases [4]; 1 μM; ABL1-nonphosphorylated) [% Ctrl]","% Ctrl, ABL1-phosphorylated (kinases [4]; 1 μM; ABL1-phosphorylated) [% Ctrl]","% Ctrl, PDGFRA (kinases [5]; 1 μM; PDGFRA) [% Ctrl]","% Ctrl, EGFR(G719C) (kinases [6]; 1 μM; EGFR(G719C)) [% Ctrl]","% Ctrl, RET(M918T) (kinases [7]; 1 μM; RET(M918T)) [% Ctrl]","% Ctrl, ABL1(H396P)-nonphosphorylated (kinases [8]; [17]) [% Ctrl]","% Ctrl, ABL1(H396P)-phosphorylated (kinases [8]; [18]) [% Ctrl]",also measured,SMILES
,,,,,,,,,,,"% Ctrl, FLT3(R834Q) (kinases [1]; target FLT3(R834Q); 1 μM): 39 % Ctrl; % Ctrl, ABL1(F317L)-nonphosphorylated (kinases [2]; [9]): 48 % Ctrl; % Ctrl, ABL1(F317L)-phosphorylated (kinases [2]; [10]): 39 % Ctrl; % Ctrl, KIT(L576P) (kinases [3]; target KIT(L576P); 1 μM): 84 % Ctrl; % Ctrl, ABL1-nonphosphorylated (kinases [4]; [11]): 17 % Ctrl; % Ctrl, ABL1-phosphorylated (kinases [4]; [12]): 9.8 % Ctrl; % Ctrl, PDGFRA (kinases [5]; target PDGFRA; 1 μM): 74 % Ctrl; % Ctrl, EGFR(G719C) (kinases [6]; target EGFR(G719C); 1 μM): 82 % Ctrl; % Ctrl, RET(M918T) (kinases [7]; target RET(M918T); 1 μM): 41 % Ctrl; % Ctrl, ABL1(H396P)-nonphosphorylated (kinases [8]; [13]): 2 % Ctrl; % Ctrl, ABL1(H396P)-phosphorylated (kinases [8]; [14]): 9.5 % Ctrl","Cc1cc2c([nH]1)/C=C1\C(=O)Nc3ccc(cc31)-c1c(noc1C)CNCCN(C)C2=O [Ex. 139, [3a(4)Z]-6,9,16-trimethyl-10,11,12,13-tetrahydro-2H-1,17-(ethanediylidene)[1,2]oxazolo[4,3-m]dipyrrolo[3,2-f:3′,4′-i][1,4]diazacyclopentadecine-3,8(5H,9H)-dione]"
,,,,,,,,,,,"% Ctrl, FLT3(R834Q) (kinases [1]; 1 μM; target FLT3(R834Q)): 16 % Ctrl; % Ctrl, ABL1(F317L)-nonphosphorylated (kinases [2]; 1 μM; target ABL1(F317L)-nonphosphorylated): 7.1 % Ctrl; % Ctrl, ABL1(F317L)-phosphorylated (kinases [2]; 1 μM; target ABL1(F317L)-phosphorylated): 1.9 % Ctrl; % Ctrl, KIT(L576P) (kinases [3]; 1 μM; target KIT(L576P)): 16 % Ctrl; % Ctrl, ABL1-nonphosphorylated (kinases [4]; 1 μM; target ABL1-nonphosphorylated): 0.6 % Ctrl; % Ctrl, ABL1-phosphorylated (kinases [4]; 1 μM; target ABL1-phosphorylated): 1.4 % Ctrl; % Ctrl, PDGFRA (kinases [5]; 1 μM; target PDGFRA): 44 % Ctrl; % Ctrl, EGFR(G719C) (kinases [6]; 1 μM; target EGFR(G719C)): 100 % Ctrl; % Ctrl, RET(M918T) (kinases [7]; 1 μM; target RET(M918T)): 0.8 % Ctrl; % Ctrl, ABL1(H396P)-nonphosphorylated (kinases [8]; 1 μM; target ABL1(H396P)-nonphosphorylated): 0 % Ctrl; % Ctrl, ABL1(H396P)-phosphorylated (kinases [8]; 1 μM; target ABL1(H396P)-phosphorylated): 0.1 % Ctrl","Cc1cc2c([nH]1)/C=C1\C(=O)Nc3cnc(cc31)-c1cnn(C)c1CN(C)CCN(C)C2=O [Ex. 172, [3a(4)Z]-6,9,12,14-tetramethyl-9,10,11,12,13,14-hexahydro-17,1-(azenometheno)pyrazolo[4,3-m]dipyrrolo[3,2-f:3′,4′-i][1,4]diazacyclopentadecine-3,8(2H,5H)-dione]"
,,,,,,,,,,,"% Ctrl, FLT3(R834Q) (kinases [1]; target FLT3(R834Q); 1 μM): 97 % Ctrl; % Ctrl, ABL1(F317L)-nonphosphorylated (kinases [2]; [9]): 89 % Ctrl; % Ctrl, ABL1(F317L)-phosphorylated (kinases [2]; [10]): 89 % Ctrl; % Ctrl, KIT(L576P) (kinases [3]; target KIT(L576P); 1 μM): 90 % Ctrl; % Ctrl, ABL1-nonphosphorylated (kinases [4]; [11]): 64 % Ctrl; % Ctrl, ABL1-phosphorylated (kinases [4]; [12]): 100 % Ctrl; % Ctrl, PDGFRA (kinases [5]; target PDGFRA; 1 μM): 100 % Ctrl; % Ctrl, EGFR(G719C) (kinases [6]; target EGFR(G719C); 1 μM): 89 % Ctrl; % Ctrl, RET(M918T) (kinases [7]; target RET(M918T); 1 μM): 27 % Ctrl; % Ctrl, ABL1(H396P)-nonphosphorylated (kinases [8]; [13]): 50 % Ctrl; % Ctrl, ABL1(H396P)-phosphorylated (kinases [8]; [14]): 80 % Ctrl","Cc1cc2c([nH]1)/C=C1\C(=O)Nc3ccc(cc31)-c1c(C)nn(C)c1COCCN(C)C2=O [Ex. 146, [3a(4)Z]-6,9,14,16-tetramethyl-10,11,13,14-tetrahydro-2H-1,17-(ethanediylidene)pyrazolo[4,3-m]dipyrrolo[3,2-f:3′,4′-i][1,4]oxazacyclopentadecine-3,8(5H,9H)-dione]"
84,93,79,98,84,91,100,100,100,87,93,,"Cc1cc2c([nH]1)/C=C1\C(=O)Nc3ccc(cc31)OCCOCCNC2=O [Ex. 129, [16a(17)Z]-2-methyl-6,7,9,10-tetrahydro-1H-12,14-(ethanediylidene)dipyrrolo[3,2-i:3′,4′-l][1,4,7]dioxazacyclopentadecine-4,16(5H,15H)-dione]"
39,87,100,98,71,59,95,73,76,62,61,,"Cc1cc2c([nH]1)/C=C1\C(=O)Nc3ccc(cc31)CN(C)C(=O)COCCNC2=O [Ex.111, [17a(18)Z]-2,11-dimethyl-6,7,11,12-tetrahydro-1H-13,15-(ethanediylidene)dipyrrolo[3,2-f:3′,4′-i][1,4,14]oxadiazacyclohexadecine-4,10,17(5H,9H,16H)-trione]"
50,59,44,4.8,36,25,56,90,25,11,22,,"Cc1cc2c([nH]1)/C=C1\C(=O)Nc3cc(Cl)c(cc31)OCCO[C@@H](C(=O)N[C@@H]1CCNC1)CN(C)C2=O [Ex. 136, [7R,16a(17)Z]-19-chloro-2,5-dimethyl-4,16-dioxo-N-[(3R)-pyrrolidin-3-yl]-4,5,6,7,9,10,15,16-octahydro-1H-12,14-(ethanediylidene)dipyrrolo[3,2-i:3′,4′-l][1,4,7]dioxazacyclopentadecine-7-carboxamide]"
68,85,58,100,60,51,89,97,93,28,51,,"Cc1cc2c([nH]1)/C=C1\C(=O)Nc3ccc(cc31)-c1c(noc1C)COCCN(C)C2=O [Ex. 128, [3a(4)Z]-6,9,16-trimethyl-1,11-dihydro-2H,13H-1,17-(ethanediylidene)[1,4]oxazolo[4,3-m]dipyrrolo[3,2-f:3′,4′-i][1,4]oxazacyclopentadecine-3,8(5H,9H)-dione]"
